These results are taken from patent US12329769B2, “Use of Abelmoschi corolla extract in preparation of drug for treating fibrosis” (SUZHONG PHARMACEUTICAL GROUP CO., LTD., priority 2019, dated 2025).

The subject of data set [1] is fibrosis of NRK-49F cells stimulated by TGF-β1. The experiment in a line: In-vitro anti-fibrosis effect: WB of Collagen I and α-SMA in NRK-49F cells stimulated by TGF-β1. It counts as cell-based. To be noted: 30 μM monomer constituent, added 30 minutes before TGF-β1, co-incubation 24 hours, FIG. 3.
Protocol: NRK-49F cells were inoculated into a 6-well plate at a density of 5×10^5 cells/well, and cultured in a DMEM medium containing 10% fetal bovine serum for 16 hours. After adding 50 μg/mL Abelmoschi corolla extract and each elution fraction constituent of macroporous resin and 30 μM monomer constituent of Abelmoschus manihot for 30 minutes, 10 mg/mL TGF-β1 was added. After co-incubation for 24 hours, cell proteins were extracted for a WB experiment to detect expression of Collagen I and α-SMA proteins, so as to judge the in-vitro anti-fibrosis effects of the Abelmoschi corolla extract and each elution constituent of macroporous resin and the monomer constituent.
Another data set deals with NRK-49F cells. The experiment in a line: MTT test of effect on activity of NRK-49F cells. It counts as cell-based. To be noted: 30 μM monomer constituent, co-incubation 24 hours. How it is done: NRK-49F cells were inoculated into a 96-well plate at a density of 5×10^3 cells/well, and cultured in a DMEM medium containing 10% fetal bovine serum for 16 hours. 50 μg/mL gradient elution constituent solution of macroporous resin of an Abelmoschi corolla extract or 30 μM of monomer constituents of the Abelmoschi corolla extract were added. After co-incubation for 24 hours, an original culture solution was removed, and 100 μL of 0.5 mg/mL MTT was added into each well. After incubation in an incubator for 4 hours, a staining solution was removed, and 150 μL of DMSO was added for detection by a microplate reader.
Background: Formazan colour is commonly taken as a measure of viable cells.

Take `O=C(O)C1OC(Oc2c(O)cc(O)c3c(=O)c(OC4OC(CO)C(O)C(O)C4O)c(-c4ccc(O)c(O)c4)oc23)C(O)C(O)C1O` [compound 6, Gossypetin-3-O-β-D-glucose-8-O-β-D-glucuronide]: in data set [1], the “expression of Collagen I protein (WB)” value is given as “significantly inhibit” and the “expression of α-SMA protein (WB)” value was “significantly inhibit”.

Consider `O=c1c(O)c(-c2cc(O)c(O)c(O)c2)oc2cc(O)cc(O)c12` [compound 18, Myricetin], for which the “activity of the NRK-49F cells (MTT)” value with NRK-49F cells is “significantly inhibit”.

In the case of `O=c1c(O)c(-c2ccc(O)c(O)c2)oc2cc(O)cc(O)c12` [compound 20, Quercetin], in data set [1], the “expression of Collagen I protein (WB)” value is “significantly inhibit” and the “expression of α-SMA protein (WB)” value is listed as “significantly inhibit”.
